Laboratory results published in publication PMC10174317, “^18F-labeled FGFR1 peptide: a new PET probe for subtype FGFR1 receptor imaging” (Frontiers in Oncology, 2023).
Where a SMILES comes first, the peptide text is derived from it. The star is where a group is joined. NOTA = O=C(O)CN1CCN(CC(=O)O)CCN(CC(=O)*)CC1; AEEA = NCCOCCOCC(=O)O

Key:
[1] = In vitro stability in fresh human serum (RP-HPLC); assay type: in vitro ADME; conditions: 37°C, 1, 2, 4 and 6 h
Experimental: The in vitro and in vivo stability of [^18F]F-FGFR1 was evaluated by RP-HPLC analysis. […] The radiochemical purity of the final compounds was determined by RP-HPLC.

[2] = test system: RT-112 cells (FGFR1-high expression); assay: Cellular uptake and blocking study; assay type: cell-based, human
Experimental: RT-112, A549, SNU-16 and Calu-3 cells were cultured at a density of 1*10^5 cells per well in 24-well plates the day before cellular uptake experiments. Cells were rinsed twice with 1000 µl of phosphate-buffered saline (PBS) (BI, Israel), followed by 1000 µl of growth medium. Then, 30 µl (111 KBq, 1.81-2.53 GBq/μmol) of [^18F]F-FGFR1 was added to each well, and the cells were incubated with the peptide for 15, 30, 60 and 120 min. At each cutoff time, 6 wells of supernatant were collected. The collected wells were washed twice with 1000 µl of PBS. Radioactivity counts were marked as Cout. […] After 500 µl of trypsin-EDTA digestion of the adherent cells and washed twice with 1000 µl of PBS, the collected cells were defined as Cin. Radioactivity was counted with an automatic γ counter. The formula for the cell uptake rate was as follows: Cin/(Cin + Cout).
To determine the specific binding of [^18F]F-FGFR1 with FGFR1 on the cell surface, 200-fold unlabeled peptide (220 µg) and 30 µl of [^18F]F-FGFR1 (111 KBq) were added to RT-112 cells at the same time. The supernatants were removed after 120 min of incubation. The subsequent steps of cell collection and radioactivity detection were performed as described above. The cell uptake rate was calculated by Cin/(Cin + Cout).

[3] = Micro-PET/CT biodistribution in SNU-16 xenografts; assay type: in vivo, BALB/c nude mice; conditions: female, BALB/c nude, mouse, iv, total radioactivity, 11.1 MBq tail vein, micro-PET/CT ROI, mean ± SD; for tissue uptake at 0.5 h: 30 min post-injection; for tissue uptake at 1 h: 60 min post-injection; for tissue uptake at 2 h: 120 min post-injection
Experimental: (§1) All animal experiments were carried out in accordance with the Laboratory Animal Ethical Review of Animal Guidelines of China. BALB/c nude mice (sex, female; age, 4 weeks, body weight range, 19-21 g; China) were used for this study. Four cell lines (2*10^7 cells/nude mouse) were subcutaneously injected into the right forelimb to induce solid tumors. All xenograft nude mice were housed in laminar flow cabinets in a specific pathogen-free (SPF) environment and were provided ad libitum access to food and water at the Laboratory Animal Center of the Fourth Hospital of Hebei Medical University (China). The indication for micro-PET/CT imaging was xenografts with a tumor volume of 50-130 mm^3. All animal experiments strictly adhered to the Principles of the Laboratory Animal Ethical Committee of the Fourth Hospital Hebei Medical University (No. 2020016).
(§2) Xenograft mice (n=5) were fastly injected of 200 µl of [^18F]F-FGFR1 (11.1 MBq) through tail vein. For the in vivo blocking study, RT-112 (FGFR1-high expression) tumor-bearing mice (n = 5) were injected with a tracer that was mixed with 200-fold (1.58 mg) unlabeled peptide to saturate the receptors in the tumors. Mice were anesthetized via 3% isoflurane inhalation (RWD Life Science Inc. China) for induction and 2% isoflurane inhalation for maintenance. Micro-PET/CT imaging was performed on a micro-PET/SPECT/CT machine (NOVEL MEDICAL Equipment Ltd. China). Whole-body scans were performed 30, 60 and 120 min after tracer administration. The CT scanning parameters were 80 kV, 0.5 mA, 2000 ms/frames, and 360 frames; the images were reconstructed with a 512*512 matrix and a slice thickness of 0.18 mm. PET images were acquired with a 140*140 matrix and 10 min of total acquisition time. Reconstructed images were processed with the comprehensive image analysis software Pmod v4.201 (PMOD Technologies LLC. Switzerland). The biodistribution of the major organs (brain, heart, lung, liver, kidney, bone and muscle) and tumor were analyzed by manually outlining the regions of interest (ROIs) of the entire organs and tissue at each time point of the micro-PET/CT scan. The radioactivity accumulated in bone and muscle was measured in the limbs without xenograft tumors.

[4] = Micro-PET/CT biodistribution in RT-112-blocked xenografts; assay type: in vivo, BALB/c nude mice; conditions: female, BALB/c nude, mouse, iv, total radioactivity, n=5; for tissue uptake at 0.5 h / tissue uptake at 1 h / tissue uptake at 2 h: RT-112-blocked xenografts (tracer mixed with 200-fold, 1.58 mg, unlabeled peptide), 11.1 MBq tail vein, micro-PET/CT ROI, mean ± SD; for tissue uptake at 0.5 h: 30 min post-injection; for tissue uptake at 1 h: 60 min post-injection
Experimental: as §1, §2

[5] = bone, n=5, read-out: Biodistribution, Bone
[6] = brain, n=5, read-out: Biodistribution, Brain
[7] = heart, n=5, read-out: Biodistribution, Heart
[8] = kidney, n=5, read-out: Biodistribution, Kidney
[9] = liver, n=5, read-out: Biodistribution, Liver
[10] = lung, n=5, read-out: Biodistribution, Lung
[11] = muscle, n=5, read-out: Biodistribution, Muscle
[12] = tumor, n=5, read-out: Biodistribution, Tumor
[13] = bone, read-out: Biodistribution, Bone
[14] = brain, read-out: Biodistribution, Brain
[15] = heart, read-out: Biodistribution, Heart
[16] = kidney, read-out: Biodistribution, Kidney
[17] = liver, read-out: Biodistribution, Liver
[18] = lung, read-out: Biodistribution, Lung
[19] = muscle, read-out: Biodistribution, Muscle
[20] = tumor, read-out: Biodistribution, Tumor

CC(C)C[C@H](NC(=O)[C@H](CO)NC(=O)[C@H](CCCCN)NC(=O)[C@H](Cc1c[nH]c2ccccc12)NC(=O)[C@H](CCC(=O)O)NC(=O)[C@H](C)NC(=O)[C@H](CCCCN)NC(=O)COCCOCCNC(=O)CN1CCN(CC(=O)O)CCN(CC(=O)O)CC1)C(=O)NCC(=O)N[C@@H](CCC(=O)O)C(=O)N[C@@H](CCC(=O)O)C(=O)N[C@@H](C)C(=O)N[C@@H](Cc1c[nH]c2ccccc12)C(=O)N[C@@H](Cc1c[nH]cn1)C(=O)N[C@@H](CO)C(=O)N[C@@H](CCCCN)C(=O)O [[^18F]F-FGFR1] ({NOTA-AEEA}-KAEWKSLGEEAWHSK-OH; N-terminus and C-terminus assumed)
Radiochemical purity after incubation (in vitro stability) [1]: exceeded 90%
Cellular uptake in RT-112 versus A549, SNU-16 and Calu-3 cells ([2]; 15, 30, 60 and 120 min incubation, P < 0.001, n = 6): consistently higher in RT-112 cell line
Cell uptake rate Cin/(Cin + Cout), blocked ([2]; RT-112 cells, 111 KBq tracer with 200-fold excess unlabeled peptide (220 µg), 120 min, mean ± SD, n = 6): 0.24 ± 0.05
Cell uptake rate Cin/(Cin + Cout) ([2]; RT-112 cells, 111 KBq tracer, 120 min incubation, γ counter, mean ± SD, n = 6): 5.11 ± 0.63
tissue uptake at 0.5 h [3, 5]: 0.38 ± 0.1 %ID/g
tissue uptake at 1 h [3, 5]: 0.37 ± 0.05 %ID/g
tissue uptake at 2 h [3, 5]: 0.41 ± 0.02 %ID/g
tissue uptake at 0.5 h [3, 6]: 0.56 ± 0.06 %ID/g
tissue uptake at 1 h [3, 6]: 0.6 ± 0.07 %ID/g
tissue uptake at 2 h [3, 6]: 0.56 ± 0.1 %ID/g
tissue uptake at 0.5 h [3, 7]: 0.7 ± 0.09 %ID/g
tissue uptake at 1 h [3, 7]: 0.62 ± 0.09 %ID/g
tissue uptake at 2 h [3, 7]: 0.55 ± 0.06 %ID/g
tissue uptake at 0.5 h [3, 8]: 8.04 ± 0.97 %ID/g
tissue uptake at 1 h [3, 8]: 7.43 ± 0.83 %ID/g
tissue uptake at 2 h [3, 8]: 4.23 ± 0.7 %ID/g
tissue uptake at 0.5 h [3, 9]: 1.54 ± 0.11 %ID/g
tissue uptake at 1 h [3, 9]: 1.57 ± 0.12 %ID/g
tissue uptake at 2 h [3, 9]: 1.45 ± 0.1 %ID/g
tissue uptake at 0.5 h [3, 10]: 0.67 ± 0.08 %ID/g
tissue uptake at 1 h [3, 10]: 0.6 ± 0.03 %ID/g
tissue uptake at 2 h [3, 10]: 0.46 ± 0.09 %ID/g
tissue uptake at 0.5 h [3, 11]: 0.27 ± 0.06 %ID/g
tissue uptake at 1 h [3, 11]: 0.27 ± 0.03 %ID/g
tissue uptake at 2 h [3, 11]: 0.31 ± 0.02 %ID/g
tissue uptake at 0.5 h [3, 12]: 0.66 ± 0.05 %ID/g
tissue uptake at 1 h [3, 12]: 0.6 ± 0.06 %ID/g
tissue uptake at 2 h [3, 12]: 0.45 ± 0.04 %ID/g
tissue uptake at 0.5 h [4, 13]: 0.31 ± 0.07 %ID/g
tissue uptake at 1 h [4, 13]: 0.37 ± 0.04 %ID/g
tissue uptake at 2 h ([4]; bone, 120 min post-injection, read-out: Biodistribution, Bone): 0.35 ± 0.07 %ID/g
tissue uptake at 0.5 h [4, 14]: 0.61 ± 0.03 %ID/g
tissue uptake at 1 h [4, 14]: 0.61 ± 0.06 %ID/g
tissue uptake at 2 h ([4]; brain, 120 min post-injection, read-out: Biodistribution, Brain): 0.71 ± 0.1 %ID/g
tissue uptake at 0.5 h [4, 15]: 0.74 ± 0.08 %ID/g
tissue uptake at 1 h [4, 15]: 0.7 ± 0.07 %ID/g
tissue uptake at 2 h ([4]; heart, 120 min post-injection, read-out: Biodistribution, Heart): 0.75 ± 0.14 %ID/g
tissue uptake at 0.5 h [4, 16]: 9.35 ± 0.82 %ID/g
tissue uptake at 1 h [4, 16]: 7.31 ± 0.87 %ID/g
tissue uptake at 2 h ([4]; kidney, 120 min post-injection, read-out: Biodistribution, Kidney): 3.37 ± 0.54 %ID/g
tissue uptake at 0.5 h [4, 17]: 0.67 ± 0.16 %ID/g
tissue uptake at 1 h [4, 17]: 0.51 ± 0.09 %ID/g
tissue uptake at 2 h ([4]; liver, 120 min post-injection, read-out: Biodistribution, Liver): 0.5 ± 0.09 %ID/g
tissue uptake at 0.5 h [4, 18]: 0.6 ± 0.05 %ID/g
tissue uptake at 1 h [4, 18]: 0.59 ± 0.04 %ID/g
tissue uptake at 2 h ([4]; lung, 120 min post-injection, read-out: Biodistribution, Lung): 0.51 ± 0.07 %ID/g
tissue uptake at 0.5 h [4, 19]: 0.26 ± 0.03 %ID/g
tissue uptake at 1 h [4, 19]: 0.29 ± 0.03 %ID/g
tissue uptake at 2 h ([4]; muscle, 120 min post-injection, read-out: Biodistribution, Muscle): 0.27 ± 0.02 %ID/g
tissue to tissue ratio at 2 h ([4]; tumor and liver, RT-112-blocked xenografts (200-fold unlabeled peptide), 120 min post-injection, micro-PET/CT, read-out: Tumor to liver ratio (T/L)): 0.85 ± 0.22
tissue uptake at 0.5 h [4, 20]: 0.4 ± 0.02 %ID/g
tissue uptake at 1 h [4, 20]: 0.39 ± 0.03 %ID/g
tissue uptake at 2 h ([4]; tumor, 120 min post-injection, read-out: Biodistribution, Tumor): 0.4 ± 0.02 %ID/g
